Data taken from PubChem BioAssay (NCI).
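Growth conditions: 96-well plates. Treatment: test compound, 48 hours, 5 concentrations. Analysis: linear interpolation between bracketing concentrations; unreached endpoints set to highest concentration. GI50 marks 50% less growth. TGI is the concentration that stops growth completely.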

Legend:
Experiment in all cases: growth of human tumour cells (NCI), 48 h
[1] = test system: RXF 393 renal
[2] = test system: SK-MEL-28 melanoma
[3] = test system: LOX IMVI melanoma
[4] = test system: CCRF-CEM leukemia
[5] = test system: MOLT-4 leukemia
[6] = test system: SR leukemia
[7] = test system: NCI-H23 lung
[8] = test system: HS 578T breast
[9] = test system: NCI-H522 lung
[10] = test system: SN12C renal

Row | Structure (SMILES) | GI50 [1] [µM] | TGI [1] [µM] | GI50 [2] [µM] | TGI [2] [µM] | GI50 [3] [µM] | TGI [3] [µM] | GI50 [4] [µM] | TGI [4] [µM] | GI50 [5] [µM] | TGI [5] [µM] | GI50 [6] [µM] | TGI [6] [µM] | GI50 [7] [µM] | TGI [7] [µM] | GI50 [8] [µM] | TGI [8] [µM] | GI50 [9] [µM] | TGI [9] [µM] | GI50 [10] [µM] | TGI [10] [µM]
1 | CCCN(CCC)c1ccc(/C=N/NC(=O)c2cccnc2)c(Cl)c1 | 11.5 | 25.3 | 11.9 | 31.9 | 11.2 | 24.9 | 15 | > 100 | 12.9 | 46.2 | 3.41 | 98.6 | 14.1 | 45.4 | 14.3 | 47.3 | 6.64 | 23.3 | 14.1 | 34.3
2 | Cc1ccc(S(=O)(=O)N2CCc3ccc(O)c4c3C2Cc2cc(Cl)ccc2-4)cc1 (stereo not drawn) | 0.83 | 2.49 | 1.68 | 5.84 | 1.84 | 6.02 | 0.922 | 14.1 | 1.51 | 10.2 | 1.06 | 4.26 | 0.864 | 3.28 | 0.889 | 6.68 | 0.827 | 2.29 | 1.78 | 7.42
3 | COC(=O)C1=C(C(=O)OC)C23C=C(C)C1C2=C(C)C1(CC1)[C@@](C)(O)C3=O (stereo partly drawn) | 0.179 | 0.341 | 0.714 | 3.97 | 0.358 | 2.89 | 4.8 | > 100 | 6.62 | > 100 | 3.64 | > 100 | 0.17 | 0.851 | 1.37 | 7.61 | 0.495 | 5.75 | 0.435 | 13.3
4 | C[C@@]12CCC(=O)C=C1CC[C@H]1C2=CC[C@]2(C)C1CC[C@@]2(C)O (stereo partly drawn) | – | > 100 | – | > 100 | – | > 100 | – | > 100 | – | > 100 | – | > 100 | – | > 100 | – | > 100 | – | > 100 | – | > 100
5 | CCCc1nc2c(C)cc(-c3nc4ccccc4n3C)cc2n1Cc1ccc(-c2ccccc2C(=O)O)cc1 | 22.4 | 82.2 | 25.7 | > 100 | 23.2 | > 100 | 22.7 | > 100 | 32.4 | > 100 | 28.6 | > 100 | 51.5 | > 100 | 38.1 | > 100 | 22 | 46.5 | 33.3 | > 100
6 | N#Cc1ccnc(N2C(=O)CC[C@H]2C(=O)N(c2cncc(F)c2)[C@H](C(=O)NC2CC(F)(F)C2)c2ccccc2Cl)c1 | > 100 | > 100 | > 100 | > 100 | 52.6 | > 100 | > 100 | > 100 | 30.5 | > 100 | 62.5 | > 100 | > 100 | > 100 | 99.6 | > 100 | > 100 | > 100 | 60.8 | > 100
7 | CCOC(=O)c1c(C(F)(F)F)n([O-])c2ccc(OC)cc2[n+]1=O | 23.8 | > 100 | 20.3 | > 100 | 5.22 | 25.4 | 4.3 | 41.7 | 4 | 17.5 | 2.37 | 6.74 | 3.68 | 26.6 | 4.07 | 46.2 | 6.52 | 31 | 2.84 | 22.2
8 | COc1ccc(-c2nc(-c3nc4ccc(OC)cc4[nH]3)cc3c2[nH]c2ccccc23)cc1 | 2.77 | > 100 | > 100 | > 100 | 3.14 | > 100 | 0.887 | > 100 | 1.98 | > 100 | 4.29 | > 100 | 5.8 | > 100 | 2.85 | > 100 | 2.7 | > 100 | 3.49 | > 100
9 | COc1ccc(NC(=O)c2sc3nc(C)c(C(O)c4ccccc4)cc3c2N)cc1 (stereo not drawn) | 2.25 | 49.1 | 6.93 | > 100 | 4.25 | > 100 | 2.54 | > 100 | 3.57 | 34 | 0.517 | > 100 | 3.48 | > 100 | 1.73 | 6.86 | 2.21 | 20.4 | 3.36 | > 100
10 | Cc1[nH]c(=O)[nH]c(=O)c1CO | > 100 | > 100 | > 100 | > 100 | > 100 | > 100 | > 100 | > 100 | > 100 | > 100 | > 100 | > 100 | > 100 | > 100 | > 100 | > 100 | > 100 | > 100 | > 100 | > 100
11 | COc1cc(-c2cc(-c3nc4ccc(Cl)cc4[nH]3)[nH]n2)cc(OC)c1OC | 3.26 | 14.5 | 2.42 | 7.11 | – | – | 2.48 | 7.56 | 2.02 | 4.82 | 3.32 | 37.6 | 2.73 | 8.89 | 3.58 | 45.5 | 1.9 | 5.73 | 3.06 | 15.6
12 | COc1cc(/C=C2\COc3ccc(O)c(O)c3C2=O)cc(OC)c1 | 1.47 | 3.01 | 2.97 | 10.4 | 1.28 | 2.67 | 0.505 | > 100 | 1.54 | 53.1 | 0.852 | 12.5 | 2.36 | 7.02 | 2.66 | 17.1 | 0.171 | 0.403 | 1.63 | 8.24
13 | NCc1nnn(Cc2ccccc2)c1N | – | > 100 | – | > 100 | – | > 100 | – | > 100 | – | > 100 | – | > 100 | – | > 100 | – | > 100 | – | > 100 | – | > 100
